We go through 1 molecule from patent US20190038624A1 (priority 2017, published 2019).

The structures appear in SMILES notation.

For data set [1], the system named is patient with probable multiple system atrophy. It is filed as in vivo, human. The following applies: single MSA patient, oral Nilotinib 200 mg. An excerpt: A person who presented with inability to walk. The disease started 4 years ago with a slowing of their gait and tremors at rest in both hands. […] They had been experiencing dizziness, dysphagia during the past year, and urinary urgency during the previous six months.
Upon admission, the patient could not walk without assistance and needed intermittent bladder catheterization because of urinary incontinence. […] Informed consent was obtained from the patient and their family before treatment of oral Nilotinib 200 mg […]. The monthly monitoring included a physical and a neurological exam, an electrocardiogram, and complete blood count and chemistry.

The subject of data set [2] is patients with probable MSA. Format: in vivo, human. As to conditions: oral 200 mg daily. On the procedure: Five patients fulfilled the consensus criteria for “probable MSA” and received oral Nilotinib 200 mg daily for 24 weeks. Disease progression was monitored every 4 weeks by measuring the patient's motor and non-motor symptoms with the Unified Multiple System Atrophy Rating Scale (UMSARS). Mini Mental State Examination (MMSE) was used to screen for cognitive impairment. […] However, these AEs resolved with continued administration of the drug. […] Furthermore, there was a significant decline of 6.8 and 2.2 points in the UMSARS and UMSARS-II, respectively, compared to baseline (see FIG. 2). MMSE results were normal throughout treatment.

The subject of data set [3] is PD and DLB subjects. The following applies: 24 weeks of treatment with 300 mg Nilotinib; cited from earlier work.
The mark [4] stands for this setting: average of five MSA patients, 24 weeks.

For `Cc1cn(-c2cc(NC(=O)c3ccc(C)c(Nc4nccc(-c5cccnc5)n4)c3)cc(C(F)(F)F)c2)cn1` [Nilotinib], the “non-motor symptoms (swallowing, constipation, urinary function)” value in data set [1] (24 weeks) is “significant improvement of non-motor symptoms”. Also, in data set [1] (24 weeks, could not walk without assistance upon admission), the “walking ability at the end of the study” value is “could walk slowly without assistance”. The nonserious adverse events result in data set [1] (24 weeks, no hospitalization, resolved with continuous use) was “mild skin irritation, dizziness, and mild headache”. For the same molecule, in data set [1] (week 24), the “decrease on the UMSARS compared with baseline” value is 11 points and the “decrease on the UMSARS-II compared with baseline” value was found to be 6 points. Besides, in data set [2] (setting [4]), the “decline in the UMSARS compared to baseline” value came to 6.8 points and the “decline in the UMSARS-II compared to baseline” value worked out at 2.2 points. Moreover, in data set [2] (five MSA patients, end of 24 weeks), the “non-motor symptoms (swallowing, constipation, urinary function)” value is on record as “improvement of non-motor symptoms”. The “decline in UPDRS I-IV” value in data set [3] is on record as 11.1 points.
